Measurements taken from the CheMixHub viscosity set.

Assay: xn = mol fraction of the nth substance listed
Settings: 101.3 kPa

COC(=O)OC + CCO
Settings	viscosity [mPa·s]
293.15 K, x1 = 0.0498	1.07
293.15 K, x1 = 0.0978	0.974
293.15 K, x1 = 0.176	0.853
293.15 K, x1 = 0.2928	0.74
293.15 K, x1 = 0.4053	0.675
293.15 K, x1 = 0.4981	0.646
293.15 K, x1 = 0.5982	0.625
293.15 K, x1 = 0.6962	0.613
293.15 K, x1 = 0.8024	0.609
293.15 K, x1 = 0.8894	0.607
293.15 K, x1 = 0.9516	0.618
298.15 K, x1 = 0.0598	0.966
298.15 K, x1 = 0.095	0.897
298.15 K, x1 = 0.1692	0.786
298.15 K, x1 = 0.2725	0.685
298.15 K, x1 = 0.3854	0.625
298.15 K, x1 = 0.4778	0.594
298.15 K, x1 = 0.5686	0.573
298.15 K, x1 = 0.6777	0.561
298.15 K, x1 = 0.7915	0.555
298.15 K, x1 = 0.8775	0.556
298.15 K, x1 = 0.9366	0.565
303.15 K, x1 = 0.0673	0.832
303.15 K, x1 = 0.1142	0.752
303.15 K, x1 = 0.2249	0.627
303.15 K, x1 = 0.2894	0.588
303.15 K, x1 = 0.3906	0.541
303.15 K, x1 = 0.4848	0.521
303.15 K, x1 = 0.5996	0.512
303.15 K, x1 = 0.6931	0.513
303.15 K, x1 = 0.8038	0.512
303.15 K, x1 = 0.9072	0.52
303.15 K, x1 = 0.9462	0.527
313.15 K, x1 = 0.0504	0.731
313.15 K, x1 = 0.0934	0.662
313.15 K, x1 = 0.2082	0.535
313.15 K, x1 = 0.3087	0.472
313.15 K, x1 = 0.393	0.45
313.15 K, x1 = 0.5026	0.44
313.15 K, x1 = 0.6011	0.438
313.15 K, x1 = 0.7052	0.44
313.15 K, x1 = 0.7968	0.445
313.15 K, x1 = 0.9075	0.463
313.15 K, x1 = 0.9507	0.475
